Data from patent US12441725B2, “ISO-citrate dehydrogenase (IDH) inhibitor” (ZHEJIANG METON PHARMACEUTICAL CO., LTD, priority 2019, dated 2025).

Legend:
IDH1 R132H = molecular target: T1, IDH1 R132H (Homo sapiens, UniProt O75874, R132H); test: Biochemical assay for IDH inhibition (NADPH fluorescence), mutant IDH1 R132H; details: 50 nM IDH1-R132H, 1 hour pre-incubation, in triplet
T1 construct: 6xHis
Text: (§1) The present disclosure provides a biochemical assay method for detecting the IDH inhibition and selectivity of the compounds by detecting IDH enzyme activity directly.
(§2) Wild-type IDH enzymes convert NADP^+ to NADPH when catalyzing the α-KG producing reaction. Mutant IDH enzymes convert NADPH to NADP^+ when catalyzing the D-2-HG producing reaction. So, the activity of wild-type and mutant IDH1/2 could be measured by monitoring NADPH level change as NADPH is fluorescent (Excitation 340 nm, Emission 460 nm). By monitoring the change of NADPH level in the reaction, the enzyme activity could be determined rapidly and efficiently and IC50 of a compound could also be assayed.
(§3) The test compounds are prepared into 50 mM stock solutions in DMSO and stored at −20° C. Each test compound stock is further diluted to obtain a 100× stock solution at a concentration of 400 μM, 200 μM, 100 μM, 50 μM, 25 μM, 12.5 μM, 6.25 μM and 3.125 μM, respectively, for the final use on the day of test (the concentration range of 100× stock solutions might be adjusted to cover the estimated IC50 of a specific test compound).
(§4) Inhibition of Mutant IDH1 (R132H or R132C):
(§5) To assay the enzymatic activity of mutant IDH1 proteins, 25 nM IDH1-R132C or 50 nM IDH1-R132H protein solutions are prepared in 20 mM Tris-HCl pH7.5, 150 mM NaCl, 10 mM MgCl2, 1 mM DTT, 0.05 mg/ml BSA and 1.33 mM α-KG. 148 μL 25 nM IDH1-R132C or 50 nM IDH1-R132H protein solutions are mixed with 2 μL DMSO (vehicle control for test compounds) or an above-mentioned 100× stock solution of a test compound and incubated for 1 hour at room temperature. Extra reactions containing 148 μL no-enzyme solution (20 mM Tris-HCl pH7.5, 150 mM NaCl, 10 mM MgCl2, 1 mM DTT, 0.05 mg/ml BSA and 1.33 mM α-KG) and 2 μL DMSO are also set up as background controls. Then each reaction is initiated by adding 50 μL 80 μM NADPH solution prepared in 20 mM Tris-HCl pH7.5, 150 mM NaCl, 10 mM MgCl2, 1 mM DTT and 0.05 mg/ml BSA. BioTek Synergy H1 Microplate reader (BioTek Instruments Inc., Winooski, U.S.) is employed to monitor the NADPH fluorescence (Excitation 340 nm, Emission 460 nm) every 42 seconds for 15 minutes. NADPH change rate is determined according to the linear phase of the fluorescence-time curve and results from the background control reactions are used as background subtraction to calculate the net NADPH change rates of other reactions. The net NADPH change rates from the vehicle control reactions are used as 100% enzymatic activity and thus the relative enzymatic activity of reactions with test compounds added could be determined. Then a dose-response curve is drawn for each test compound and the corresponding IC50 is calculated. The IC50 value is used to evaluate the inhibition and selectivity of each test compound on the IDH enzymatic activity.
(§6) The IDH inhibition activity of the compounds were assessed according to Test 2 of the Biological Assay section. The test for mutant IDH1 R132H and IDH1 R132C inhibition of each compound was carried out in triplet. As used in Table 5, “A” refers to an inhibitory activity against IDH1 R132H or IDH1 R132C with an IC50<0.1 μM; “B” refers to an inhibitory activity against IDH1 R132H or IDH1 R132C with an IC50 from 0.1 μM to 0.5 μM; “C” refers to an inhibitory activity against IDH1 R132H or IDH1 R132C with an IC50 from 0.5 μM to 1 μM; “D” refers to an inhibitory activity against IDH1 R132H or IDH1 R132C with an IC50>1 μM.

IDH1 R132C = molecular target: T2, IDH1 R132C (Homo sapiens, UniProt O75874, R132C); test: Biochemical assay for IDH inhibition (NADPH fluorescence), mutant IDH1 R132C; details: 25 nM IDH1-R132C, 1 hour pre-incubation, in triplet
T2 construct: 6xHis
T2 sequence (O75874 whole entry R132C): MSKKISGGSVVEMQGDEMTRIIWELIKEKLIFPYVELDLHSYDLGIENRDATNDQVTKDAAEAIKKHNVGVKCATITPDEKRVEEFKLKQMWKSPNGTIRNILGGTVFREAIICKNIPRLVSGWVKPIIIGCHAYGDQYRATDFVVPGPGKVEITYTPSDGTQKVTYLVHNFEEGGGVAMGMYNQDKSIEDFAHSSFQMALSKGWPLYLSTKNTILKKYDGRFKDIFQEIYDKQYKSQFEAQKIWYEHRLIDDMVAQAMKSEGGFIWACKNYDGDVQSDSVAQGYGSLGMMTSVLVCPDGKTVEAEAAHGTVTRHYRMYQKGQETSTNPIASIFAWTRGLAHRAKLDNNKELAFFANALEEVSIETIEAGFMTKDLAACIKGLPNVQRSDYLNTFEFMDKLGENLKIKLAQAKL
Text: as §1, §2, §3, §4, §5, §6

[1] = molecular target: T3, IDH (endogenous IDH1 R132C) in HT1080 cell (Homo sapiens, UniProt O75874, R132C); test: Cell-based assay for IDH inhibition (decrease of D-2-HG) in HT1080 cells; details: human fibrosarcoma cell line HT1080, 16 hours treatment, D-2-HG by LC-MS, in triplet
T3 construct: which harbor endogenous heterozygous IDH1 R132C and R132H mutation respectively and accumulate D-2-HG
T3 sequence (O75874 2-414 R132C): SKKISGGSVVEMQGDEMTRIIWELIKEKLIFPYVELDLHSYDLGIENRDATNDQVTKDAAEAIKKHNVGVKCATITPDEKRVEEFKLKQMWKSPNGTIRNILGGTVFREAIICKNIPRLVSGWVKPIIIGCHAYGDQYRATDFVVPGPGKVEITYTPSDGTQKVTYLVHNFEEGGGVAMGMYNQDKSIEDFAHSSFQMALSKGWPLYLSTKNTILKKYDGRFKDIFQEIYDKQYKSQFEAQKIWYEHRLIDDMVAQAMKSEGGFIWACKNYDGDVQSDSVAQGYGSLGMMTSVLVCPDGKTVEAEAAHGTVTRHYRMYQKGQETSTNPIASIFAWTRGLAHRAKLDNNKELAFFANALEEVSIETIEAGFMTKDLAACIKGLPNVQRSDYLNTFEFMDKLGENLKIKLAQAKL
Text: The present disclosure also provides a cell-based method for assaying IDH inhibition and selectivity of the compounds in human fibrosarcoma cell line HT1080 and cholangiocarcinoma cell line HCCC 9810, which harbor endogenous heterozygous IDH1 R132C and R132H mutation respectively and accumulate D-2-HG. Tumor -derived IDH mutant lost its normal activity of producing α-KG, and gained a new activity of producing D-2-HG. D-2-HG is a metabolite specifically elevated in tumor cells expressing mutant IDH1 or IDH2 proteins. When treating such mutant IDH-expressing tumor cells with an effective IDH inhibitor, the synthesis of D-2-HG is blocked, and D-2-HG concentration is decreased by the oxidation reaction catalyzed by the endogenous D-2-HG dehydrogenase.
To perform a cell-based IDH inhibition assay, HT1080 and HCCC 9810 cells (or other cell lines harboring different IDH mutations) are cultured in DMEM supplemented with 10% FBS. The cells are treated with compounds of present disclosure at various different concentrations. 16 hours after the treatment, culture medium supernatants are removed and cell metabolites are extracted by 40% methanol and 40% acetonitrile in water (pre-chilled under −80° C.) at 4° C. for 1 hour. The extract supernatants are collected and cell debris are removed via high speed centrifugation. The resulting metabolite extracts are analyzed on an Agilent LC-MS system (model: 1290-6470) for 2-HG and glutamate concentration. A HILIC-Z column (2.1 mm×100 mm, […]) is employed on HPLC. Mobile phase A is 15 mM CH3COONH4 and 0.3% NH3·H2O in water. Mobile phase B is 15 mM CH3COONH4 and 0.3% NH3·H2O in 90% MeCN/10% H2O solvent. An 19% solvent A and 81% solvent B isocratic gradient method is used at a flow rate of 0.3 ml/min. D-2-HG is ionized under negative ion spray mode and detected through the multiple-reaction monitoring of a mass transition pair at m/z=147.0/128.9 and 147.0/85.1. Glutamate is ionized under ion spray mode and detected on negative polarity multiple-reaction monitoring of a mass transition pair at m/z=146/102 and 146/128 and its level is used to normalize 2-HG concentration. The activity of cellular mutant IDH proteins in the presence of each test compound at different concentrations can be represented by relative D-2-HG concentration to negative control samples (i.e., cells are treated with DMSO only), and the IC50 value could be determined to evaluate the inhibition and selectivity of each test compound on the IDH enzymatic activity.
The IDH inhibition activity of the compounds were assessed in human fibrosarcoma cell line HIT1080 according to Test 3 of the Biological Assay section. The test for IDH inhibition of each compound was carried out in triplet. As used in Table 6, “A” refers to an IDH inhibitory activity with an IC50<0.1 μM; “B” refers to an IDH inhibitory activity with an IC50 from 0.1 μM to 0.5 μM; “C” refers to an IDH inhibitory activity with an IC50 from 0.5 μM to 1 μM; “D” refers to an IDH inhibitory activity with an IC50>1 μM.

T1 sequence (O75874 whole entry R132H): as the sequence (O75874 whole entry R132C) above, with C132H counted along it

Row | Compound | IC50 (IDH1 R132H) [µM] | IC50 (IDH1 R132C) [µM] | IC50 [1] [µM]
1 | CCN1Cc2c(ccnc2N[C@@H](C)c2ccc(C(=O)c3ccccc3)c(F)c2)C1=O [Compound 60, (S)-4-((1-(4-benzoyl-3-fluorophenyl)ethyl)amino)-2-ethyl-2,3-dihydro-1H-pyrrolo[3,4-c]pyridin-1-one] | > 1 | > 1 | > 1
2 | CCN1Cc2c(ccnc2N[C@@H](C)c2cc(F)c(-c3cc(C(F)(F)F)c(O)cn3)cc2F)C1=O [Compound 164, (S)-4-((1-(2,5-difluoro-4-(5-hydroxy-4-(trifluoromethyl)pyridin-2-yl)phenyl)ethyl)amino)-2-ethyl-2,3-dihydro-1H-pyrrolo[3,4-c]pyridin-1-one] | 0.1 to 0.5 | 0.5 to 1 | 0.5 to 1
3 | CCN1Cc2c(ccnc2N[C@@H](C)c2cc(F)c(O[C@@H]3C[C@@H](C)CC(C)(C)C3)cc2F)C1=O [Compound 23, 4-(((S)-1-(2,5-difluoro-4-(((1R,5S)-3,3,5-trimethylcyclohexyl)oxy)phenyl)ethyl)amino)-2-ethyl-2,3-dihydro-1H-pyrrolo[3,4-c]pyridin-1-one] | < 0.1 | < 0.1 | < 0.1
4 | CCN1Cc2c(ccnc2N[C@@H](C)c2ccc(Oc3ccc4c(cnn4C)c3)c(F)c2)C1=O [Compound 1, 2-ethyl-4-[[(1S)-1-[3-fluoro-4-(1-methylindazol-5-yl)oxy-phenyl]ethyl]amino]-3H-pyrrolo[3,4-c]pyridin-1-one] | 0.1 to 0.5 | 0.1 to 0.5 | 0.5 to 1
5 | CCN1Cc2c(ccnc2N[C@@H](C)c2cc(F)c(-c3cc4c(cn3)COC4(C)C)cc2F)C1=O [Compound 146, (S)-4-((1-(4-(1,1-dimethyl-1,3-dihydrofuro[3,4-c]pyridin-6-yl)-2,5-difluorophenyl)ethyl)amino)-2-ethyl-2,3-dihydro-1H-pyrrolo[3,4-c]pyridin-1-one] | < 0.1 | < 0.1 | < 0.1
6 | CCN1Cc2c(ccnc2N[C@@H](C)c2ccc(CN3CCC(F)(F)CC3)c(F)c2)C1=O [Compound 55, (S)-4-((1-(4-((4,4-difluoropiperidin-1-yl)methyl)-3-fluorophenyl)ethyl)amino)-2-ethyl-2,3-dihydro-1H-pyrrolo[3,4-c]pyridin-1-one] | > 1 | > 1 | > 1
7 | C[C@H](Nc1nccc2c1CN([C@H](C)CF)C2=O)c1ccc(-c2ccnc(C(C)(C)C)c2)c(F)c1 [Compound 40, 4-(((S)-1-(4-(2-(tert-butyl)pyridin-4-yl)-3-fluorophenyl)ethyl)amino)-2-((R)-1-fluoropropan-2-yl)-2,3-dihydro-1H-pyrrolo[3,4-c]pyridin-1-one] | < 0.1 | 0.1 to 0.5 | 0.1 to 0.5
8 | CCN1Cc2c(ccnc2N[C@@H](C)c2ccc(Cc3ccc(F)c(C)c3)c(F)c2)C1=O [Compound 51, (S)-2-ethyl-4-((1-(3-fluoro-4-(4-fluoro-3-methylbenzyl)phenyl)ethyl)amino)-2,3-dihydro-1H-pyrrolo[3,4-c]pyridin-1-one] | 0.1 to 0.5 | 0.1 to 0.5 | > 1
9 | CCN1Cc2c(ccnc2N[C@@H](C)c2cc(F)c(-c3ccnc(Cl)c3)cc2F)C1=O [Compound 95, (S)-4-((1-(4-(2-chloropyridin-4-yl)-2,5-difluorophenyl)ethyl)amino)-2-ethyl-2,3-dihydro-1H-pyrrolo[3,4-c]pyridin-1-one] | > 1 | > 1 | 0.5 to 1
10 | CCN1Cc2c(N[C@@H](C)c3cn(-c4ccc(F)cc4)cn3)ncc(F)c2C1=O [Compound 57, (S)-2-ethyl-7-fluoro-4-((1-(1-(4-fluorophenyl)-1H-imidazol-4-yl)ethyl)amino)-2,3-dihydro-1H-pyrrolo[3,4-c]pyridin-1-one] | > 1 | > 1 | > 1
11 | CCN1Cc2c(ccnc2N[C@@H](C)c2ccc(-c3ccc(F)c(C)c3)c(F)c2)C1=O [Compound 81, (S)-4-((1-(2,4′-difluoro-3′-methyl-[1,1′-biphenyl]-4-yl)ethyl)amino)-2-ethyl-2,3-dihydro-1H-pyrrolo[3,4-c]pyridin-1-one] | 0.1 to 0.5 | 0.5 to 1 | > 1
12 | CCN1Cc2c(ccnc2N[C@@H](C)c2cc(F)c(-c3ccnc(C4(O)COC4)c3)cc2F)C1=O [Compound 94, (S)-4-((1-(2,5-difluoro-4-(2-(3-hydroxyoxetan-3-yl)pyridin-4-yl)phenyl)ethyl)amino)-2-ethyl-2,3-dihydro-1H-pyrrolo[3,4-c]pyridin-1-one] | > 1 | > 1 | > 1
13 | CCN1Cc2c(ccnc2N[C@@H](C)c2ccc(Cc3ccnc(C(F)(F)F)c3)c(F)c2)C1=O [Compound 53, (S)-2-ethyl-4-((1-(3-fluoro-4-((2-(trifluoromethyl)pyridin-4-yl)methyl)phenyl)ethyl)amino)-2,3-dihydro-1H-pyrrolo[3,4-c]pyridin-1-one] | > 1 | > 1 | –
